Results taken from a melting point compilation (Tetko et al.; mined from patent text by program, amines drawn as free bases though some values may be those of a salt).

Row | SMILES | melting point [°C]
1 | Cn1nc(-c2ccc(Cl)c(Cl)c2)c2ccccc2c1=O | 179 to 181
2 | CC(=O)Nc1cc(-c2ccncn2)c[nH]c1=O | > 250
3 | O=C(NC1CCN(CCc2ccc(Cl)cc2)C1)C12CC3CC(CC(C3)C1)C2 (configuration not stated) | 94 to 95
4 | COCn1c(-c2nc3c(OC)ccc(N4CCOCC4)c3s2)nc2ccc(Cl)nc21 | 167 to 170
5 | O=C(Cl)N1CC(Oc2cc(C(F)(F)F)ccc2Cl)C1 | 40 to 45
6 | CC(=O)N1CCc2cc(S(=O)(=O)C[N+](=O)[O-])ccc21 | 210
7 | CCOCC1OC(n2cnc3c(NC4CCCC4)ncnc32)C(O)C1O (configuration not stated) | 134 to 136
8 | C[C@@H](n1cnn(-c2ccc(OC(F)(F)C(F)F)cc2)c1=O)[C@@]1(c2ccc(F)cc2F)CO1 | 105 to 106
9 | CC(=O)Nc1ccc(C=C2c3ccccc3CCc3ccccc32)cc1 | 135
10 | COC(=O)c1sc2c(c1O)CCC2 | 73 to 75
11 | ICCCOc1ccc(OCCCI)cc1 | 93 to 95
12 | CC1=NN(C(=O)NS(=O)(=O)N(C)S(=O)(=O)N(C)C)C(c2cccs2)C1 (configuration not stated) | 112 to 113
13 | N#Cc1ccc(N2C(=O)C3CSCN3C2=O)c2ccccc12 (configuration not stated) | 223 to 225
14 | CCc1ccc(NC(=O)c2ccccc2CN2C(=O)C3(COc4cc5c(cc43)CCO5)c3ccccc32)cc1 (configuration not stated) | > 230
15 | NCC(O)c1ccc(C(F)(F)F)cc1 (configuration not stated) | 138 to 140
16 | Cc1oc(-c2ccccc2)nc1COc1ccc2c(-c3ccccc3)c(COc3nn(-c4ccccc4)cc3CO)oc2c1 | 118 to 119
17 | N#CCC(O)(Cn1cncn1)c1ccc(F)cc1F (configuration not stated) | 154 to 155
18 | CC1CCCC(C)N1NC(=O)Nc1cccc2c1C(=O)c1c-2n[nH]c1-c1ccc(N2CCNCC2)cc1 (configuration not stated) | 270
19 | CS(=O)(=O)c1ccc(-n2nc(CCCN3C(=O)c4ccccc4C3=O)cc2-c2ccccc2)cc1 | 62.4 to 72.2
20 | NS(=O)(=O)c1ccc(NC(=O)CNc2ccc(Cl)cc2)c(Cl)c1 | 185
21 | COCCOc1ccc(C(=O)C(=O)O)cc1 | 129 to 130
22 | CN(C)C1(c2cccc(F)c2)CCC2(OCCc3c2[nH]c2ccccc32)C(CNC(=O)C=Cc2cccc(-c3ccccc3)c2)C1 (configuration not stated) | 134 to 140

Row | SMILES | melting point [°C]
23 | CC1c2ccccc2-c2ccccc2N1S(=O)(=O)c1ccc(O)cc1 (configuration not stated) | 196 to 198
24 | Fc1cccc2c1[nH]c1c2ccc2cc[nH]c21 | > 250
25 | COC(=O)c1cc(-n2cccc2)ccc1C | 56 to 57
26 | C[C@@H]1Cc2ccccc2O[C@H]1c1ccccc1 (relative stereo) | 77 to 78
27 | CCOC(=O)c1nccc(N)n1 | 101 to 104
28 | COC(=O)CNC(=O)c1ccc(C(=O)NS(=O)(=O)c2ccc(OC)cc2)cn1 | 150 to 152
29 | CC(C)c1ccc(C(=O)NCCOc2ccc(C(=O)O)cc2)cc1 | 202 to 203
30 | C#CCOc1cc(NC(=O)CC(CC(=O)O)C(F)(F)F)ccc1Cl (configuration not stated) | 128 to 130
31 | CCCC(Cn1cncn1)(OCC)c1ccc(Cl)cc1Cl (configuration not stated) | 67
32 | O=CC12CC3CC(CC(C3)C1)C2 | 132 to 135
33 | CS(=O)(=O)Nc1ccc(C(=O)NC(=O)N2CCC(Cc3ccc(F)cc3)CC2)cc1 | 221 to 222
34 | Nc1ccc2c(n1)CCO2 | 129 to 131
35 | N#Cc1ccnc(CO)c1 | 92 to 94
36 | COc1ccc(C2(C#Cc3cccc(NC(C)=O)c3)CCC(=O)CC2)cc1OC1CCCC1 | 63 to 64
37 | COc1ccc(C(=O)N2CCN(c3ccc([N+](=O)[O-])c(C=O)c3)CC2)cc1OC | 196 to 198
38 | CCN(CC)c1ccc2c(c1)CC(=O)N2 | 122 to 124
39 | CNc1nc(-c2cccc3ccccc23)co1 | 164 to 166
40 | CC(=O)OC1CSC(Oc2ccc(-c3cccnc3)cc2)C(OC(C)=O)C1OC(C)=O (configuration not stated) | 150
41 | COC(=O)[C@@H]1Cc2ccccc2N1C(=O)[C@H](CC(=O)O)NC(=O)C(F)(F)F | 157 to 158
42 | NC1CCc2cc(Cl)ccc2NC1=O (configuration not stated) | 170 to 171
43 | Cc1nc(N)ccc1NC(=NC#N)Oc1ccccc1 | 189 to 190
44 | CC(C)CS(=O)(=O)N1C[C@@H](C)C[C@H](Nc2ncccc2-c2cnc3[nH]ccc3n2)C1 | 215 to 218

Row | SMILES | melting point [°C]
45 | CS(=O)(=O)c1ncc(-c2ccccc2)c(C(F)(F)F)n1 | 110 to 112
46 | COc1cc(N)c(Cl)cc1C(=O)NCC1CCN(CCCCCN)CC1 | 60 to 63
47 | O=c1[nH]ncc2cc(CCc3ccccc3)ccc12 | 190 to 193
48 | O=c1nc(N2CCN(Cc3ccccc3)CC2)sc2c([N+](=O)[O-])cc(C(F)(F)F)cc12 | 161 to 163
49 | CC(C)(C)CCNC(=O)NCCCl | 84
50 | CN1CCN(c2cccc(Oc3cc(=O)[nH]c4ccccc34)c2)CC1 | 218 to 221
51 | COOc1ccc(S(=O)(=O)c2cnc(C)nc2Cc2c(C)cc(C)cc2C)cc1 | 150 to 152
52 | O=C1OCCC12Sc1ccc(S(=O)(=O)N3CCCCC3)cc1C2=O (configuration not stated) | 159 to 161
53 | O=C(O)c1ccc(CNS(=O)(=O)c2ccc(F)cc2)cc1 | 231 to 234
54 | CCCCC(C)c1ccc(C=Cc2cc3cc4ccccc4cc3s2)cc1 (configuration not stated) | 280 to 282
55 | CCCCCCCCCCCCCCCCCCc1nc2ncccc2o1 | 84 to 85
56 | COc1ccc2c(c1)OC(C(=O)O)C2 (racemic) | 108 to 110
57 | CN1C(=O)O[C@@H](c2ccc(F)cc2)[C@H]1Cc1ccc(C(F)(F)F)cc1 (racemic) | 77 to 78
58 | CN(C)C=CC(=O)c1cccnn1 | 102 to 105
59 | CCCC1(C)SC(=NOC(=O)NC)N=C1C (configuration not stated) | 66 to 69
60 | C[C@@H]1CN(C(=O)[C@@](C)(O)C(F)(F)F)[C@@H](C)CN1S(=O)(=O)c1cccs1 | 116 to 117
61 | CCn1nc(-c2ccccc2)c(C(C)=O)c(N)c1=O | 151 to 153
62 | CN(C1CCN(C2CC2)CC1)S(=O)(=O)c1ccc(Nc2nccc(Nc3ccc(F)cc3)n2)cc1 | 125 to 128
63 | N#CNC=Nc1ccc(-c2ncc[nH]2)cc1 | 202 to 203
64 | OCCCCc1ccc(OCc2ccccc2)cc1 | 59 to 60
65 | O=C1COc2ccc([N+](=O)[O-])cc2N1 | 221 to 223
66 | COc1cccc2c(Nc3ccc(C(=O)NC4CCN(Cc5ccccc5)CC4)cc3)c(C(N)=O)cnc12 | 154 to 162

Further lines, results first:

Row | melting point [°C] | SMILES
67 | 142 to 143 | Cc1oc(-c2ccc(C(F)(F)F)cc2)nc1COc1cccc(Cn2oc(=O)[nH]c2=O)c1
68 | 178 | Cc1cccc(C(=NO)c2ccc(Cl)cc2)c1O
69 | > 300 | Cc1ccc(-c2nc(-c3ccncc3)cs2)c(=O)[nH]1
70 | 141 to 142 | Cc1ccc(-c2nc(C(F)(F)F)oc2-c2ccc(S(C)(=O)=O)cc2)cc1
71 | 206 to 207 | Cn1c(=O)c2c(ncn2Cc2noc(O)n2)n(C)c1=O
72 | 117 to 119 | CCOc1nc(C(F)(F)F)cc(=O)n1-c1cc(OC)c(Cl)cc1F
73 | 210 to 212 | CC(C)(O)c1ccc(-c2cnc3c(n2)N(CCC2CCOCC2)CC(=O)N3)cc1
74 | 165 to 166 | CC(C)c1cccc(C(C)C)c1NC(=O)N(Cc1ccc(N(C)C)cc1)c1ccc(Br)cc1
75 | 103 to 105 | Cc1cc(C(C)(C)C)c(C)c(O)c1-c1c(C)cc(C(C)(C)C)c(C)c1O
76 | 98 to 100 | CNc1cc2c(cc1Cl)CCN(C)C[C@@H]2c1ccccc1
77 | 75 to 85 | Cc1cc(C)c(CS(=O)c2ccccc2)c(-c2ccc(F)c(C)c2)c1 (configuration not stated)
78 | 190 to 192 | Cc1c(C(N)=O)c2ccccc2n2c(N(C)C)nc(-c3noc(C4CC4)n3)c12
79 | 175 | CC(C)C1C(=O)Nc2ccc(O)cc21 (configuration not stated)
80 | 182 to 186 | COc1cc2c(Nc3ccc(Cl)cc3F)ncnc2cc1OCCSc1ccncc1
81 | 159 to 162 | O=C(O)c1ccc(Cn2cc(C3c4ccc(C(F)(F)F)cc4C=Cc4cc(C(F)(F)F)ccc43)c(=S)[nH]c2=O)o1
82 | 112 to 115 | Cc1cc(C)c(Nc2nc(C)ncc2S(=O)(=O)c2cccc(OCc3ccccc3)c2)c(C)c1
83 | < 60 | CC(=O)n1nc(C)c(Oc2cc(Cl)cc(C#N)c2)c1C
84 | 206 to 207 | Cc1c(-c2ccncn2)nc2n(c1=O)CCCN2

Row | melting point [°C] | SMILES
85 | 66 to 69 | CCOC(=O)c1cc(-c2ccccc2)nc2c(N)cccc12
86 | 112 to 114 | Cn1nc(-c2c(F)cccc2Cl)nc1-c1cccc([N+](=O)[O-])c1Cl
87 | 144 to 146 | C[C@@H](c1ccc(-c2ccn(CC(F)(F)F)c(=O)c2)cc1)N1CC[C@](CC(C)(C)O)(c2ccccc2)OC1=O
88 | > 320 | CCOC(=O)c1oc2cc(O)ccc2c(=O)c1C(N)=O
89 | 249 to 251 | Cc1n[nH]c(=O)c(-c2c(F)cc(F)cc2F)c1-c1cccs1
90 | 125 to 127 | Cc1cc(O)ccc1-c1ccc(C=O)c(Cl)c1
91 | 307 to 308 | O=C(NCc1ccc(Cl)cc1)c1nnc2ccc(I)cc2c1O
92 | 275 | CC[C@H](NC(C)=O)c1nc2c(C(F)(F)F)cccc2c(O)c1C(=O)Nc1nccs1
93 | 48 to 50 | CCOC(=O)CCc1cc(C(=O)c2cccc(C(=O)OCC)c2)ccc1/C=C\CCCCO
94 | 161 to 162 | CCOC(=O)c1cc(=O)c2c(OCCOc3ccc4c(c3)OCO4)cccc2o1
95 | 97 to 98 | CCc1cc(O)cc(O)c1
96 | 191 to 192 | COc1cc(O)c2c(=O)c(OC)c(-c3ccc(O)cc3OC)oc2c1
97 | 155 to 157 | CCN(CC)CC1CN(c2c(F)cc3c(=O)c(C(=O)O)cn(C4CC4)c3c2F)CCO1 (configuration not stated)
98 | 170 to 171 | CC(/C=C/CN1CCc2cc3c(cc21)C(C)(C)CCC3(C)C)=C\C(=O)O
99 | 95 to 97 | CCOC(=O)C(Cc1ccc(Cl)cc1SCc1ccc(OC)cc1)(CC(C)C)C(=O)OCC
100 | 270 to 275 | Cc1ccccc1C(=O)Nc1ccc(C(=O)O)cc1
101 | 299 to 300 | CC(C)(C)Nc1c(NCc2cc3cc(C#N)ccc3o2)c(=O)c1=O
102 | 165 to 166 | CCCn1nc2c(N)nc3ccccc3c2c1CC(C)(C)NC(=O)c1ccc(F)c(F)c1
